# Assay results as given in US20140113314A1, “Two Pore Channels as a Therapeutic Target to Protect Against Myocardial Ischemia and as an Adjuvant in Cardiac Surgery” (priority 2006, published 2014).
# “Also recorded” adds a separate entry of the source. Read-outs that look alike come from different tables or passages of the source.
# Legend:
# [1] = tested on: NaCN induced current from isolated guinea pig ventricular myocytes; test: NaCN induced outward current, whole-cell patch clamp in single ventricular myocytes; assay type: cell-based; conditions: for peak current densities induced by NaCN in the presence of blocker / ratio of peak current density induced by NaCN in the presence of blocker to that on exposure to NaCN alone: blocker 200 μM; for sensitivity of NaCN induced current in the presence of altered internal pH: quinidine 0.5 mM (pHin 6.0), Zn^2+ 5 mM (pHin 9.0)
# [2] = tested on: IKATP; test: IKATP activated by pinacidil together with low intracellular ATP, patch clamp in myocytes; assay type: cell-based, guinea pig; conditions: for effect on IKATP: IKATP activated by pinacidil 100 μM with intracellular ATP 0.1 mM, Zn^2+ 3 mM
# Experimental: All the cells were held at 0 mV.
# Single Guinea pig heart cell preparation. Single cardiac myocytes were enzymatically isolated from adult male guinea pig hearts as described in (Gao et al 1992, J Physiol 449:689-704). Guinea pigs, weighing 300 to 500 g, were sacrificed by peritoneal injection with sodium pentobarbital solution (1 ml of 390 mg/ml) in accordance with an approved protocol approved by the IACUC committee at SUNY-Stony Brook. The heart was isolated and placed in Ca^2+ free Tyrode solution and the aorta was cannulated. The heart was then perfused with 50 ml of Ca2+ free Tyrode solution followed by 100 ml of Tyrode solution containing 30 mol/L CaCl2 and 0.4 mg/ml collagenase at 37° C. The heart was then placed in Ca^2+ free Tyrode solution at room temperature for 2 hours. Afterward, a piece of the ventricle was dissected and teased into smaller pieces in Kraft-Brühe (KB) solution (Isenberg et al., 1982 Pflugers Arch 395:6-18) containing (in mM): KCl 83; K2HPO4 30; MgSO4 5; Na-Pyruvic Acid 5; β-OH-Butyric Acid 5; Creatine 5; Taurine 20; Glucose 10; EGTA 0.5; KOH 2; Na2-ATP 5; pH was adjusted to 7.2 by KOH. The dissociated cells were then kept in KB solution at room temperature for at least 1 hour before the experiment. All solutions were bubbled with 100% O2. The isolated cells were stored in KB solution. An Axopatch 1D amplifier (Axon Instruments, Inc) and the patch clamp technique were employed to observe cell membrane current. Patch-pipette resistances were 2 to 3 MΩ before sealing. The pipette solution contained (in mM): K-Aspartic Acid 125; KCl 15; KOH 10; MgCl2 1; HEPES 10; EGTA 11; Mg-ATP 1; pH was adjusted to 7.2 by KOH. The external Tyrode solution contained (in mM): NaCl 137.7; NaOH 2.3; KCl 4; MgCl2 1; HEPES 5; CaCl2 1; CdCl2 1; Glucose 10; pH was adjusted to 7.4 by NaOH. Under these conditions, the L-type Ca^2+ current, the Na^+/Ca^2+ exchange current and the Na^+/K^+ pump current will be absent. […] All experiments were carried out at room temperature (22±1° C.). […] All patch clamp data were digitized by the data acquisition program pClamp8 (Axon Instruments, Inc) for later analysis. Cell capacitance was obtained for each cell and currents were normalized to cell capacitances.
# [3] = tested on: NaCN induced current from isolated guinea pig ventricular myocytes; conditions: Ba^2+ 5 mM, extracellular, previously demonstrated; cited from earlier work
# [4] = tested on: temperature jump (TJ) induced current in guinea pig myocytes; test: Temperature jump (TJ) induced current in myocytes; assay type: cell-based
# Source text: FIG. 15. The characterization of temperature jump (TJ) induced current in guinea pig myocytes. A. Sample trace of TJ induced outward current. Note the current can decay on its own. B. The TJ induced current (upper panel) and its I/V relationships (lower panel). Cells were held at […] and were subject to depolarizing voltage ramps from […] to +50 mV (250 ms duration) with a frequency of 0.1 Hz. Since the current measured at the peak c is out of the current amplitude range of the amplifier, another point near the peak (b) was chosen to construct the I/V curves of the current. C, D, E, and F. Biophysical properties of TREK-1 a heat-activated K2P channel. […] I. Summary of the inhibitory effects of Zn^2+ and quinidine on the TJ induced current (unpaired p<0.01, t-test).
# [5] = tested on: myocytes; test: Myocyte shrinkage associated with the NaCN induced current; assay type: cell-based, guinea pig; conditions: quinidine 0.5 mM, Zn2+ 3 mM
smiles,measurement,setting,value
COc1ccc(Cl)cc1C(=O)NCCc1ccc(S(=O)(=O)NC(=O)NC2CCCCC2)cc1 [glibenclamide],effect on NaCN induced current,[1]; agent 200 μM,does not prevent the appearance of the NaCN induced current; also recorded: could not be abolished
same,peak current densities induced by NaCN in the presence of blocker,[1],23.0±2.1 pA/pF
same,ratio of peak current density induced by NaCN in the presence of blocker to that on exposure to NaCN alone,[1],1.2±0.1
same,effect on IKATP,[2],abolished
"CCCCCC(O)CCCC(=O)O (centres unmarked) [5-HD, 5-hydroxydecanoic acid]",effect on NaCN induced current,[1]; agent 200 μM,does not inhibit the NaCN induced current; also recorded: does not result in a reduced current amplitude
same,peak current densities induced by NaCN in the presence of blocker,[1],24.7±2.6 pA/pF
same,ratio of peak current density induced by NaCN in the presence of blocker to that on exposure to NaCN alone,[1],1.3±0.1
"[Ba+2].[Cl-].[Cl-] [Ba^2+, BaCl2]",effect on NaCN induced current,[1]; Ba^2+ 20 mM,can prevent the appearance of the NaCN induced current
same,effect on NaCN induced current,"[1]; Ba^2+ 20 mM, listed as Ba2+",abolished
same,effect on NaCN induced current,[1]; Ba^2+ 5-10 mM,Partial inhibition
same,effect on NaCN induced current,[1]; Ba^2+ 20-40 mM,almost complete elimination
same,effect on NaCN induced current,[1]; agent 1 mM,"neither Ba^2+ (1 mM, upper panel) nor Cs^+ (3 mM, lower panel) can prevent the appearance of the NaCN induced current"
same,effect on NaCN induced current,[3],partially blocked
"Nc1ccncc1 [4AP, 4-Aminopyridine]",peak current densities of NaCN induced current with blocker,"[1]; 4AP 4 mM, n=6",24.1±5.2 pA/pF
same,effect on NaCN induced current,[1]; agent 4 mM,not reduced
COC(=O)[C@@H](N)CCCNC(=N)N[N+](=O)[O-] [L-NAME],effect on NaCN induced current,[1]; agent 200 μM,reduced; also recorded: reduces the current
"[Cl-].[Cs+] [Cs^+, CsCl]",peak current densities of NaCN induced current with blocker,"[1]; Cs^+ 3 mM, n=5",19.1±2.4 pA/pF
same,effect on NaCN induced current,"[1]; agent 3 mM, listed as Cs+",insensitive
same,effect on NaCN induced current,"[1]; agent 3 mM, listed as CsCl",not affected
CCCCC/C=C\C/C=C\C/C=C\C/C=C\CCCC(=O)N[C@H](C)CO [methanandamide],effect on NaCN induced current,[1]; methanandamide 20 μM,does not block the current induced by NaCN
same,effect on NaCN induced current,[1]; methanandamide 20 μM to 100 μM,does not prevent the appearance of the NaCN induced current
same,effect on NaCN induced current,[1]; methanandamide 40 and 100 μM,significant increase
same,effect on NaCN induced current,"[1]; methanandamide 40 and 100 μM, listed as Methanandamide",significantly increased
C=C[C@H]1C[N@@]2CC[C@H]1C[C@@H]2[C@@H](O)c1ccnc2ccc(OC)cc12 [quinidine],effect on NaCN induced current,[1]; agent 1 mM,can prevent the appearance of the current induced by NaCN
same,effect on NaCN induced current,[1]; quinidine 0.5 mM,completely abolished; also recorded: can both block the peak current induced by NaCN and prevent its occurrence
same,sensitivity of NaCN induced current in the presence of altered internal pH,[1],remains sensitive
same,effect on IKATP,[2],unaffected
same,effect on TJ induced current,[4],partially blocked
same,effect on NaCN induced current and cell shrinkage,[5],prevent the appearance of the NaCN induced current and cell shrinkage
CC(N/C(=N\C#N)Nc1ccncc1)C(C)(C)C (centres unmarked) [pinacidil],activation of IKATP,[2]; pinacidil 100 μM together with low intracellular ATP 0.1 mM,activated
N=C(N)NCCC[C@H](N)C(=O)O [L-arginine],effect on NaCN induced current,[1],can additionally activate an outward current; also recorded: increases the NaCN induced current
"[Cl-].[Cl-].[Zn+2] [Zn^2+, ZnCl2]",effect on NaCN induced current,[1]; Zn^2+ 5 mM,completely abolish
same,effect on NaCN induced current,[1]; agent 3 mM,reversibly abolished; also recorded: can prevent the appearance of the current induced by NaCN
same,effect on NaCN induced current,"[1]; agent 3 mM, listed as ZnCl2",completely blocked; also recorded: abolished
same,sensitivity of NaCN induced current in the presence of altered internal pH,[1],remains sensitive
same,effect on IKATP,[2],cannot be blocked; also recorded: unaffected
same,effect on TJ induced current,[4],can prevent the appearance of TJ induced current
same,effect on NaCN induced current and cell shrinkage,[5],prevent the appearance of the NaCN induced current and cell shrinkage
